Source: patent US20250368633A1, “AZEPINE FUSED RING COMPOUND AS RIPK1 INHIBITOR AND USE THEREOF” (ARTIVILA BIOPHARMA, priority 2022, published 2025)

How the values were obtained:
RIPK1 kinase = target: T1, RIPK1 kinase (Homo sapiens, UniProt Q13546); assay: In vitro RIPK1 kinase activity assay (ADP-Glo), inhibition by compounds at 1 μM; format: biochemical; conditions: compound 1 μM; ATP 10 μM; MBP substrate 100 μg/mL; read-out: RIPK1 kinase activity inhibition rate range
T1 construct: purchased Promega VA7593
T1 sequence (Q13546 1-671): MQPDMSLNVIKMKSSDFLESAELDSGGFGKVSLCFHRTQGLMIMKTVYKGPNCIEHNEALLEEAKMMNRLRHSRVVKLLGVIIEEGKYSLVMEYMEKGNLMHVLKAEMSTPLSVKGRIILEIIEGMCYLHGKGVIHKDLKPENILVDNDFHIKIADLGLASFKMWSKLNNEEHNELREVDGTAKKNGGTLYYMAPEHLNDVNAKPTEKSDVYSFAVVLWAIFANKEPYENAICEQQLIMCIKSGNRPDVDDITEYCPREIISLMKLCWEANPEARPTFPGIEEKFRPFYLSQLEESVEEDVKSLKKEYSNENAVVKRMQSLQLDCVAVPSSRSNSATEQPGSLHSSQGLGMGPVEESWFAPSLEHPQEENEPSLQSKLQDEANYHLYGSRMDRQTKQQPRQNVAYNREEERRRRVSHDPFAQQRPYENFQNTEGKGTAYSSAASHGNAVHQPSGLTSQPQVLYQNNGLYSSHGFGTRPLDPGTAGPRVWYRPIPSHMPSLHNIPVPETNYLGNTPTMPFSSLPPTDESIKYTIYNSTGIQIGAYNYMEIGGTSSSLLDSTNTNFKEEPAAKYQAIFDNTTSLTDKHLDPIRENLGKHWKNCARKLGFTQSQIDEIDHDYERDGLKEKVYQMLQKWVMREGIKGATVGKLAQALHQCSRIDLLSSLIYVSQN
How it was run: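 Read by ADP-Glo chemiluminescence as percent inhibition: RIPK1 kinase, 15-min room-temperature compound preincubation, then 1-h reaction with MBP (100 μg/mL final) and ATP (10 μM final). Enzyme level was set by titration.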

U937 cells [1] = assay: Inhibition rate of compound (1 μM) on necroptosis of U937 cells (TSZ-induced, CellTiter-Glo); format: cell-based; conditions: TSZ (hTNF-α, SM-164, Z-VAD-FMK) 20 hours
How it was run: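 Percent inhibition comes from ATP luminescence (CellTiter-Glo), referenced to wells without TSZ and wells with TSZ alone. The compound was added to U937 cells 15 min ahead of a TNF-α/SM-164/Z-VAD-FMK mix, followed by 20 h culture at 37° C, 5% CO2.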

U937 cells [2] = assay: EC50 of necroptosis inhibition in U937 cells (TSZ-induced, CellTiter-Glo); format: cell-based; conditions: Homo sapiens, U-937; TSZ (hTNF-α, SM-164, Z-VAD-FMK) 20 hours; 10 concentration points; read-out: EC50 intervals of necroptosis inhibition in U937 cells
How it was run: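 Luminescent ATP readout (CellTiter-Glo) after 20 h gave viability of TSZ-challenged U937 cells; compounds were added 15 min ahead of TNF-α/SM-164/Z-VAD-FMK. EC50 derived by variable-slope nonlinear regression of inhibition relative to no-TSZ and TSZ-alone controls.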

| Structure (SMILES) | inhibition at 1 µM (RIPK1 kinase) [%] | Inhibition rate range of compounds (1 μM) on U937 cell necroptosis (U937 cells [1]) | EC50 (U937 cells [2]) [nM] |
| --- | --- | --- | --- |
| CN1C(=O)[C@@H](NC(=O)C(=O)NCCc2cccc(F)c2)COc2ccccc21 [Example 100, (S)—N^1-(3-fluorophenethyl)-N^2-(5-methyl-4-oxo-2,3,4,5-tetrahydrobenzo[b][1,4]oxazepin-3-yl)oxamalide] | ≥ 75 | B (B: 50-89%) | 100 to 500 |
| CN1C(=O)[C@@H](NC(=O)C(=O)NCc2cc(F)cc(F)c2)COc2ccccc21 [Example 102, (S)—N^1-(3,5-difluorobenzyl)-N^2-(5-methyl-4-oxo-2,3,4,5-tetrahydrobenzo[b][1,4]oxazepin-3-yl)oxalamide] | 25 to 49 | B (B: 50-89%) | 500 to 2000 |
| CN1C(=O)[C@@H](NC(=O)C(=O)NCc2ccccc2)COc2ccc(C#CCN3CCC(O)CC3)cc21 [Example 105, (S)—N^1-benzyl-N^2-(7-(3-(4-hydroxypiperidin-1-yl)prop-1-yn-1-yl)-5-methyl-4-oxo-2,3,4,5-tetrahydrobenzo[b][1,4]oxazepin-3-yl)oxalamide] | ≥ 75 | A (A: ≥90%) | < 100 |
| Cc1ccccc1CNC(=O)C(=O)N[C@H]1COc2ccc(C#CCN3CCNC(=O)C3)cc2N(C)C1=O [Example 108, (S)—N^1-(5-methyl-4-oxo-7-(3-(3-oxopiperazin-1-yl)prop-1-yn-1-yl)-2,3,4,5-tetrahydrobenzo[b][1, 4]oxazepin-3-yl)-N^2-(2-methylbenzyl)oxalamide] | ≥ 75 | A (A: ≥90%) | < 100 |
| CN1C(=O)[C@@H](NC(=O)C(=O)NCCc2cccc(F)c2)COc2ccc(C#CC3CCCNC3)cc21 (stereo partly drawn) [Example 116, N^1-(3-fluorophenethyl)-N^2-((3S)-5-methyl-4-oxo-7-(piperidin-3-ylethynyl)-2,3,4,5-tetrahydrobenzo[b][1,4]oxazepin-3-yl)oxalamide] | 50 to 74 | A (A: ≥90%) | 100 to 500 |
| CN1C(=O)[C@@H](NC(=O)C(=O)NCCc2cccc(F)c2)COc2ccc(C#CCN3CCC(=O)C3)cc21 [Example 119, (S)—N^1-(3-fluorophenethyl)-N^2-(5-methyl-4-oxo-7-(3-(3-oxopyrrolidin-1-yl)prop-1-yn-1-yl)-2,3,4,5-tetrahydrobenzo[b][1,4]oxazepin-3-yl)oxalamide] | 25 to 49 | A (A: ≥90%) | < 100 |
| CN1C(=O)[C@@H](NC(=O)C(=O)NCCc2cccc(F)c2)COc2ccc(C#CCN3CCN(CCO)CC3)cc21 [Example 121, (S)—N^1-(3-fluorophenethyl)-N^2-(7-(3-(4-(2-hydroxyethyl)piperazin-1-yl)prop-1-yn-1-yl)-5-methyl-4-oxo-2,3,4,5-tetrahydrobenzo[b][1,4]oxazepin-3-yl)oxalamide] | ≥ 75 | B (B: 50-89%) | < 100 |
| C[C@H](NC(=O)C(=O)N[C@H]1COc2ccc(C#CCCO)cc2N(C)C1=O)c1ccccc1 [Example 124, N^1-((S)-7-(4-hydroxybut-1-yn-1-yl)-5-methyl-4-oxo-2,3,4,5-tetrahydrobenzo[b][1,4]oxazepin-3-yl)-N^2-((S)-1-phenylethyl)oxalamide] | 50 to 74 | A (A: ≥90%) | 100 to 500 |
| C[C@@H](NC(=O)C(=O)N[C@H]1COc2ccc(C#CC3COC3)cc2N(C)C1=O)c1ccccc1 [Example 131, (S)—N^1-(5-methyl-7-(oxetan-3-ylethynyl)-4-oxo-2,3,4,5-tetrahydrobenzo[b][1,4]oxazepin-3-yl)-N^2-((R)-1-phenylethyl)oxalamide] | ≥ 75 | A (A: ≥90%) | < 100 |
